What was measured:
Factor Xa = Factor Xa (Homo sapiens (Human), UniProt P00742); test: Dose response assay for protease inhibitors: Factor Xa; format: biochemical; conditions: selectivity, Factor Xa over Factor XIa
In short: (§1)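 Glp-Pro-Arg-AMC substrate (thrombin, trypsin) or Pro-Phe-Arg-AMC/Boc-Leu-Gly-Arg-AMC (Factor Xa), diluted to 100 μM, in 20 mM Hepes pH 7.4, 150 mM NaCl, 0.02% Tween 20; enzyme diluted to 0.5 nM before addition. Two-fold serial compound dilutions; kinetic reads at 30° C. Data yield IC50 and Kon.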

Thrombin = Thrombin (Homo sapiens (Human), UniProt P00734); test: Dose response assay for protease inhibitors: thrombin; format: biochemical; conditions: selectivity, thrombin over Factor XIa
In short: as §1

[1] = Metabolic stability in dog hepatocytes; format: in vitro ADME; conditions: pooled cryopreserved hepatocytes; beagle dog hepatocytes, 2 μM compound; read-out: Dog Hepatocyte Stability (t1/2)
Protocol: The following procedure was used to determine the stability of test compounds in beagle dog hepatocytes in a 96-well plate format. The test compounds, including the controls, imipramine and 7-ethoxycoumarin, were dissolved at 10 mM in DMSO, followed by further 5-fold dilution with DMSO to 2 mM. Pooled cryopreserved beagle dog hepatocytes were thawed and transferred into complete medium. Cells were gently centrifuged (700 rpm for 5 min) and the pellet rinsed with KHB (Krebs Henseleit buffer). Cells were resuspended, counted using Trypan blue, and adjusted to 1 million cells/mL in KHB buffer. The 2 mM compound stock solutions were diluted 10-fold with acetonitrile, followed by a further 50-fold dilution with KHB buffer. 200 μL of these compound solutions were transferred to 96-well polypropylene assay plates and an equal volume of the hepatocyte solution was added and mixed to initiate the reaction (final assay concentrations were 2 μM compound and 500,000 cells/mL). Assay plates were incubated at 37° C. in 5% CO2 with gentle agitation. 50 μL aliquots were removed at multiple time points out to 180 minutes and quenched with 6 volumes of cold acetonitrile (containing 250 ng/mL of carbutamide and chrysin as internal standards) to terminate the reaction and precipitate protein. Quenched samples were maintained on ice. The quenched samples were centrifuged at 2000×g (3100 rpm) for 10 minutes at 4° C. 50 μL aliquots of the supernatants were removed and diluted with 100 μL Milli-Q water to reduce the % organic content prior to bioanalysis by LC-MS/MS. Peak areas corresponding to the test compound were recorded. The compound remaining was calculated by comparing the peak area at each time point to time zero. Data were analyzed and results were calculated using Microsoft Excel 2010.

Trypsin = test: Dose response assay for protease inhibitors: trypsin; format: biochemical; conditions: selectivity, trypsin over Factor XIa
In short: as §1

[2] = Plasma protein binding by equilibrium dialysis; format: in vitro ADME; conditions: both sexes, pH 7.4, pooled human plasma, 4 hours at 37° C., read-out: PPB (%)
Protocol: The following procedure was used to determine the plasma protein binding of a test compound in pooled plasma from human (mixed gender) via equilibrium dialysis in a 96-well plate format. The dialysate compartment was loaded with phosphate-buffered saline (pH 7.4) and the sample side was loaded with plasma spiked with the test compound at a concentration of 10 μM. After loading, samples were covered and incubated for 4 hours at 37° C. After incubation, each compartment was sampled, diluted with acetonitrile/buffer and centrifuged. The supernatants were analyzed by HPLC-MS/MS. The analyte peak areas obtained from HPLC-MS/MS analysis of each sample were used to calculate protein binding according to the following equation (Equation 4):
[formula] where: AREAp=Peak area of analyte in protein matrix; AREAb=Peak area of analyte in buffer.
The amount measured in the plasma compartment included both free and bound drug, while that on the buffer side represented free drug only; the differences were used to calculate the percentage plasma protein bound. Three reference compounds were tested in each assay: acebutolol, quinidine and warfarin.

Sequence of Factor Xa (P00742 235-488): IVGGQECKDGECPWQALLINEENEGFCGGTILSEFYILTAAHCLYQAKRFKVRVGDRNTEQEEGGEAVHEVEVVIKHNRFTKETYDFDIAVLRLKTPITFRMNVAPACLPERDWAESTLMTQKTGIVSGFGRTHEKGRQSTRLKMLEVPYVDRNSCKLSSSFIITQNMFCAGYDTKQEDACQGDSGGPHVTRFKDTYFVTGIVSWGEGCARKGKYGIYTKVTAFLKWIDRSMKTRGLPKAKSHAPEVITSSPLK
Sequence of Factor Xa (P00742 41-179 partner): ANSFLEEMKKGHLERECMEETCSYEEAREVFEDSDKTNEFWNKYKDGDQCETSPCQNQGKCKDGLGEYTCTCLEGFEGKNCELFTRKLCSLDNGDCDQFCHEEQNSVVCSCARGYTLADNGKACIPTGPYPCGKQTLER

Compound	Ratio: FXa/FXIa (Factor Xa)	Ratio: Thrombin/FXIa (Thrombin)	half-life at 2 μM [1]	Ratio: Trypsin/FXIa (Trypsin)	fraction unbound at 4 h, 10 μM [2]
CC[C@@H](NC(=O)N1C(=O)[C@H](Cc2ccnc(N)c2)[C@H]1C(=O)N(C)c1cscn1)c1ccccc1 [Compound 1-8, (2S,3R)-3-((2-aminopyridin-4-yl)methyl)-N2-(4-thiazolyl)-N1-((R)-1-phenylpropyl)-N2-methyl-4-oxoazetidine-1,2-dicarboxamide]	H (“H” indicates 101-1000)	G (“G” indicates 1-100)	> 4 h	G (“G” indicates 1-100)	0.1 to 0.5
CC[C@@H](NC(=O)N1C(=O)[C@H](Cc2cc(C)nc(N)c2)[C@H]1C(=O)N(C)c1cnn(C)c1)c1cccc(Cl)c1 [Compound 1-15, (2S,3R)-3-((2-amino-6-methylpyridin-4-yl)methyl)-N2-(1-methyl-1H-pyrazol-4-yl)-N1-((R)-1-(3-chlorophenyl)propyl)-N2-methyl-4-oxoazetidine-1,2-dicarboxamide]	H (“H” indicates 101-1000)	G (“G” indicates 1-100)	> 4 h	G (“G” indicates 1-100)	0.1 to 0.5
CC[C@@H](NC(=O)N1C(=O)[C@H](Cc2ccnc(N)c2)[C@H]1C(=O)N(C)c1cscn1)c1cccc(Cl)c1 [Compound 1-17, (2S,3R)-3-((2-aminopyridin-4-yl)methyl)-N2-(4-thiazolyl)-N1-((R)-1-(3-chlorophenyl)propyl)-N2-methyl-4-oxoazetidine-1,2-dicarboxamide]	H (“H” indicates 101-1000)	H (“H” indicates 101-1000)	1.02 to 2 h	G (“G” indicates 1-100)	0.05 to 0.09
CC[C@@H](NC(=O)N1C(=O)[C@H](Cc2ccnc(N)c2)[C@H]1C(=O)N(C)c1cnn(C)c1)c1ccc(C)nc1 [Compound 1-18, (2S,3R)-3-((2-aminopyridin-4-yl)methyl)-N2-(1-methyl-1H-pyrazol-4-yl)-N1-((R)-1-(6-methylpyridin-3-yl)propyl)-N2-methyl-4-oxoazetidine-1,2-dicarboxamide]	H (“H” indicates 101-1000)	G (“G” indicates 1-100)	2.02 to 4 h	G (“G” indicates 1-100)	< 0.5
CC[C@@H](NC(=O)N1C(=O)[C@H](Cc2cc(C)nc(N)c2)[C@H]1C(=O)N(C)c1ccn(C)n1)c1cccc(C)c1 [Compound 1-22, (2S,3R)-3-((2-amino-6-methylpyridin-4-yl)methyl)-N2-(1-methyl-1H-pyrazol-3-yl)-N1-((R)-1-(3-methylphenyl)propyl)-N2-methyl-4-oxoazetidine-1,2-dicarboxamide]	H (“H” indicates 101-1000)	H (“H” indicates 101-1000)	2.02 to 4 h	G (“G” indicates 1-100)	0.1 to 0.5
CN(C(=O)[C@@H]1[C@@H](Cc2ccnc(N)c2)C(=O)N1C(=O)N[C@@H](C1CCCCC1)C(F)(F)F)c1ccn(C)n1 [Compound 1-32, (2S,3R)-3-((2-aminopyridin-4-yl)methyl)-N2-(1-methyl-1H-pyrazol-3-yl)-N1-((S)-1-cyclohexyl-2,2,2-trifluoroethyl)-N2-methyl-4-oxoazetidine-1,2-dicarboxamide]	I (“I” indicates > 500)	H (“H” indicates 101-1000)	< 1 h	G (“G” indicates 1-100)	0.05 to 0.09
CC[C@@H](NC(=O)N1C(=O)[C@H](Cc2ccnc(N)c2)[C@H]1C(=O)N(C)c1nccn1C)c1cccc(Cl)c1 [Compound 1-35, (2S,3R)-3-((2-aminopyridin-4-yl)methyl)-N2-(1-methyl-1H-imidazol-2-yl)-N1-((R)-1-(3-chlorophenyl)propyl)-N2-methyl-4-oxoazetidine-1,2-dicarboxamide]	H (“H” indicates 101-1000)	H (“H” indicates 101-1000)	1.02 to 2 h	G (“G” indicates 1-100)	0.1 to 0.5
CC[C@@H](NC(=O)N1C(=O)[C@H](Cc2ccnc(NC)c2)[C@H]1C(=O)N(C)c1nccn1C)c1cccc(Cl)c1 [Compound 1-41, (2S,3R)-3-((2-methylaminopyridin-4-yl)methyl)-N2-(1-methyl-1H-imidazol-2-yl)-N1-((R)-1-(3-chlorophenyl)propyl)-N2-methyl-4-oxoazetidine-1,2-dicarboxamide]	I (“I” indicates > 500)	H (“H” indicates 101-1000)	1.02 to 2 h	G (“G” indicates 1-100)	0.1 to 0.5
CC[C@@H](NC(=O)N1C(=O)[C@H](Cc2cc(C)nc(N)c2)[C@H]1C(=O)N(C)c1nccn1C)c1cccc(Cl)c1 [Compound 1-43, (2S,3R)-3-((2-amino-6-methylpyridin-4-yl)methyl)-N2-(1-methyl-1H-imidazol-2-yl)-N1-((R)-1-(3-chlorophenyl)propyl)-N2-methyl-4-oxoazetidine-1,2-dicarboxamide]	I (“I” indicates > 500)	H (“H” indicates 101-1000)	2.02 to 4 h	G (“G” indicates 1-100)	0.1 to 0.5
CC[C@@H](NC(=O)N1C(=O)[C@H](Cc2cc(C)nc(NC)c2)[C@H]1C(=O)N(C)c1nccn1C)c1cccc(Cl)c1 [Compound 1-46, (2S,3R)-3-((2-methylamino-6-methylpyridin-4-yl)methyl)-N2-(1-methyl-1H-imidazol-2-yl)-N1-((R)-1-(3-chlorophenyl)propyl)-N2-methyl-4-oxoazetidine-1,2-dicarboxamide]	I (“I” indicates > 500)	H (“H” indicates 101-1000)	1.02 to 2 h	G (“G” indicates 1-100)	0.05 to 0.09
CC[C@@H](NC(=O)N1C(=O)[C@H](Cc2ccnc(N)c2)[C@H]1C(=O)N(C)c1ccn(C)n1)C1CCCCC1 [Compound 1-47, (2S,3R)-3-((2-aminopyridin-4-yl)methyl)-N2-(1-methyl-1H-pyrazol-3-yl)-N1-((R)-1-cyclohexylpropyl)-N2-methyl-4-oxoazetidine-1,2-dicarboxamide]	I (“I” indicates > 500)	H (“H” indicates 101-1000)	1.02 to 2 h	G (“G” indicates 1-100)	0.05 to 0.09
C[C@@H](NC(=O)N1C(=O)[C@H](Cc2ccnc(N)c2)[C@H]1C(=O)N(C)c1ccn(C)n1)C1CCCCC1 [Compound 1-50, (2S,3R)-3-((2-aminopyridin-4-yl)methyl)-N2-(1-methyl-1H-pyrazol-3-yl)-N1-((R)-1-cyclohexylethyl)-N2-methyl-4-oxoazetidine-1,2-dicarboxamide]	I (“I” indicates > 500)	H (“H” indicates 101-1000)	1.02 to 2 h	G (“G” indicates 1-100)	0.1 to 0.5
(2S,3R)-3-((2-amino-6-methylpyridin-4-yl)methyl)-N2-(1-methyl-1H-imidazol-2-yl)-N1-((R)-1-(3-fluorophenyl)propyl)-N2-methyl-4-oxoazetidine-1,2-dicarboxamide [Compound 1-120]	I (“I” indicates > 500)	H (“H” indicates 101-1000)		G (“G” indicates 1-100)	
